Test results published in patent US11046726B2, “Nucleotide analogues” (QIAGEN SCIENCES, LLC, priority 2015, dated 2021).

Assay: Cleavage experiments with a variety of cleavage agents, reaction mixtures analyzed by RP-HPLC (FIG. 77, 78A-78B)
Settings: after 10 minutes of incubation with cleave reagent
Description: In addition to these a variety of suitable cleaving agents can be used such as Bis(2-mercaptoethyl)sulfone (BMS) and N,N′-dimethyl-N,N′-bis(mercaptoacetyl)hydrazine (DMH) (Singh et al., Bioorg. Chem., 22, 109-115 (1994). Reactions can be further catalyzed by inclusion of selenols (Singh et al. Anal Biochem. 1995 Nov. 20; 232(1):86-91 [18]). Borohydrides, such as sodium borohydrides can also be used for this purpose (Stahl et al., Anal. Chem., 1957, 29 (1), pp 151 155 [19]) as well as ascorbic acid (Nardai et al., J. Biol. Chem. 276, 8825-8828 (2001)). In addition, enzymatic methods for cleavage of disulfide bonds ae also well known such as disulfide and thioreductase and can be used with compounds of the present invention (Holmgren et. al., Methods in Enzymology, Volume 252, 1995, Pages 199-208 [21]).

Compound	cleavage of linker and 3′-protective group by cleavage agent
O[C@H](CS)[C@H](O)CS (racemic) [DTT, dithiothreitol]	full cleavage of both linker and the 3′-protective groups
N[C@@H](CS)C(=O)O [L-cysteine]	full cleavage of both linker and the 3′-protective groups
NCCS [cysteamine]	full cleavage of both linker and the 3′-protective groups
OC(=S)CCC(O)=S [dithiosuccinic acid]	selective cleavage of 3′-O-protective group
